# Reference: publication PMC2858983 (Clinical cancer research : an official journal of the …, 2010)
# Counter-ions that a name gives are not always drawn.
# Molecular target: inducible nitric oxide synthase (iNOS) (Homo sapiens, UniProt P35228)
# Assay: NO release
# Assay type: cell-based
# inducible nitric oxide synthase (iNOS), sequence (P35228 whole entry): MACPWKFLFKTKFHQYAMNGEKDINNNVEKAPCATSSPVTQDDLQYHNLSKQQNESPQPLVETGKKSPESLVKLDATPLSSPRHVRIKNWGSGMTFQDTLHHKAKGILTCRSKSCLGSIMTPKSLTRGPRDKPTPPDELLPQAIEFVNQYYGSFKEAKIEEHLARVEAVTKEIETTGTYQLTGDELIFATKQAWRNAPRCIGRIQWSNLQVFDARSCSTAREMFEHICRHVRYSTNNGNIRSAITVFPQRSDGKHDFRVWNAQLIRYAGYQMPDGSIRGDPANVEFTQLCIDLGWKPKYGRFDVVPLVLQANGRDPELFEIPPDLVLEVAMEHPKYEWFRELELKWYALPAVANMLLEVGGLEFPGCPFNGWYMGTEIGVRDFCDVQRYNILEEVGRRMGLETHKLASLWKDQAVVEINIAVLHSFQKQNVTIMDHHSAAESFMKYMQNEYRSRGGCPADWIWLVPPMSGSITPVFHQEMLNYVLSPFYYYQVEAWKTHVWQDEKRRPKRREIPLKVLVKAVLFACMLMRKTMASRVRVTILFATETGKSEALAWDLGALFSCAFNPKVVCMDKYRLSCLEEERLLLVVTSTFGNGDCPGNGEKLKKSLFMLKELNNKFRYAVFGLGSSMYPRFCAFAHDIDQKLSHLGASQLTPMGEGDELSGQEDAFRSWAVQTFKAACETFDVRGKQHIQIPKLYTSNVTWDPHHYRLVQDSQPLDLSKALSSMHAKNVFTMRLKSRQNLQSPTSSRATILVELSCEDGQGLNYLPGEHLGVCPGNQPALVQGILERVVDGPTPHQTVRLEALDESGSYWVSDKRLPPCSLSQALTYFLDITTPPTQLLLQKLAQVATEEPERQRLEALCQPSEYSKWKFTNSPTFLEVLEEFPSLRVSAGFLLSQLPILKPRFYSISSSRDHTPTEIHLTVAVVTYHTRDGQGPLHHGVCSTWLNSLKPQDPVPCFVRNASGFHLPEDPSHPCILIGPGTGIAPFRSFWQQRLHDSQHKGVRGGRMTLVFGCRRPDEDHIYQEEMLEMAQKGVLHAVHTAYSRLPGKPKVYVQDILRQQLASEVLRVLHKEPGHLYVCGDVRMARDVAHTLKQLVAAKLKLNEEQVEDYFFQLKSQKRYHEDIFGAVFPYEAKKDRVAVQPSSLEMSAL
compound,measurement,value
"CC(=N)NCCCC[C@H](N)C(=O)O [L-nil, N6-(1-Iminoethyl)-L-lysine-dihydrochloride]",IC50,595 µM
